Measurements taken from PubChem BioAssay AID1963875 (Molecular Pharmacology Branch, DTP, NCI, 2024).

Tested on: KRAS-mutant PDC complex spheroid viability
Assay: Anticancer human tumor 186277-243-T-J2-PDC patient-derived colon adenocarcinoma cell line growth inhibition [KRAS2]
Conditions: for IC50: curve of first compound; for viability, T/C: stronger effect = lower value
Summary of the method: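 KRAS-mutant tumor cells were grown as spheroids with HUVEC endothelial cells and human MSCs as stroma. Targeted agents were tested alone and with KRAS pathway inhibitors. Doses started at or near clinical Cmax, or 10 microM, descending half-log.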

[1] = second compound 0.0316 µM, first compound 0.000316 µM
[2] = second compound 0.0316 µM, first compound 0.001 µM
[3] = second compound 0.0316 µM, first compound 0.00316 µM
[4] = second compound 0.0316 µM, first compound 0.01 µM
[5] = second compound 0.0316 µM, first compound 0.0316 µM
[6] = second compound 0.0316 µM, first compound 0.1 µM
[7] = second compound 0.1 µM, first compound 0.000316 µM
[8] = second compound 0.1 µM, first compound 0.001 µM
[9] = second compound 0.1 µM, first compound 0.00316 µM
[10] = second compound 0.1 µM, first compound 0.01 µM
[11] = second compound 0.1 µM, first compound 0.0316 µM
[12] = second compound 0.1 µM, first compound 0.1 µM
[13] = second compound 0.316 µM, first compound 0.000316 µM
[14] = second compound 0.316 µM, first compound 0.001 µM
[15] = second compound 0.316 µM, first compound 0.00316 µM
[16] = second compound 0.316 µM, first compound 0.01 µM
[17] = second compound 0.316 µM, first compound 0.0316 µM
[18] = second compound 0.316 µM, first compound 0.1 µM
[19] = second compound 1 µM, first compound 0.000316 µM
[20] = second compound 1 µM, first compound 0.001 µM
[21] = second compound 1 µM, first compound 0.00316 µM
[22] = second compound 1 µM, first compound 0.01 µM
[23] = second compound 1 µM, first compound 0.0316 µM
[24] = second compound 1 µM, first compound 0.1 µM
[25] = second compound 3.16 µM, first compound 0.000316 µM
[26] = second compound 3.16 µM, first compound 0.001 µM
[27] = second compound 3.16 µM, first compound 0.00316 µM
[28] = second compound 3.16 µM, first compound 0.01 µM
[29] = second compound 3.16 µM, first compound 0.0316 µM
[30] = second compound 3.16 µM, first compound 0.1 µM
[31] = second compound 0.0316 µM, first compound 0.316 µM
[32] = second compound 0.0316 µM, first compound 1 µM
[33] = second compound 0.0316 µM, first compound 3.16 µM
[34] = second compound 0.0316 µM, first compound 10 µM
[35] = second compound 0.1 µM, first compound 0.316 µM
[36] = second compound 0.1 µM, first compound 1 µM
[37] = second compound 0.1 µM, first compound 3.16 µM
[38] = second compound 0.1 µM, first compound 10 µM
[39] = second compound 0.316 µM, first compound 0.316 µM
[40] = second compound 0.316 µM, first compound 1 µM
[41] = second compound 0.316 µM, first compound 3.16 µM
[42] = second compound 0.316 µM, first compound 10 µM
[43] = second compound 1 µM, first compound 0.316 µM
[44] = second compound 1 µM, first compound 1 µM
[45] = second compound 1 µM, first compound 3.16 µM
[46] = second compound 1 µM, first compound 10 µM
[47] = second compound 3.16 µM, first compound 0.316 µM
[48] = second compound 3.16 µM, first compound 1 µM
[49] = second compound 3.16 µM, first compound 3.16 µM
[50] = second compound 3.16 µM, first compound 10 µM
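Throughout, for viability, T/C: viability read after seven days of compound exposure; 100% = DMSO vehicle-treated spheroids so lower means less viable.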

In the case of `CC(C)n1nc(-c2ccc3oc(N)nc3c2)c2c(N)ncnc21` + C=CC(=O)N1CCN(c2nc(OCC3CCCN3C)nc3c2CCN(c2cccc4cccc(C)c24)C3)CC1CC#N, the IC50 (second compound 0.0316 µM) is reported as 7.13 nM, the IC50 (second compound 0.1 µM) is reported as 10.1 nM and the IC50 (second compound 0.316 µM) is reported as 13.6 nM. For the same compound, the IC50 (second compound 1 µM) was 6.5 nM, the IC50 (second compound 3.16 µM) was < 0.316 nM and the viability, T/C [1] was 89.7%. For the same compound, the viability, T/C [2] was 78.9%, the viability, T/C [3] was 63.5% and the viability, T/C [4] was 44.2%. It also gave a viability, T/C [5] of 28.2%, a viability, T/C [6] of 16.9% and a viability, T/C [7] of 88%. It also gave a viability, T/C [8] of 101%, a viability, T/C [9] of 77.8% and a viability, T/C [10] of 51.2%. It also gave a viability, T/C [11] of 27.4%, a viability, T/C [12] of 21.2% and a viability, T/C [13] of 106%. It also gave a viability, T/C [14] of 111%, a viability, T/C [15] of 97.1% and a viability, T/C [16] of 58.2%. It also gave a viability, T/C [17] of 27%, a viability, T/C [18] of 16.4% and a viability, T/C [19] of 102%. It also gave a viability, T/C [20] of 96.1%, a viability, T/C [21] of 70.8% and a viability, T/C [22] of 38.4%. It also gave a viability, T/C [23] of 12.8%, a viability, T/C [24] of 8.12% and a viability, T/C [25] of 0.26%. For the same compound, the viability, T/C [26] was 0.19%, the viability, T/C [27] was 0.24% and the viability, T/C [28] was 0.14%. It also gave a viability, T/C [29] of 0.12% and a viability, T/C [30] of 0.16%.

`CC1(C)CCC(CN2CCN(c3ccc(C(=O)NS(=O)(=O)c4ccc(NCC5CCOCC5)c([N+](=O)[O-])c4)c(Oc4cnc5[nH]ccc5c4)c3)CC2)=C(c2ccc(Cl)cc2)C1` + C=CC(=O)N1CCN(c2nc(OCC3CCCN3C)nc3c2CCN(c2cccc4cccc(C)c24)C3)CC1CC#N was tested, and the IC50 (second compound 0.0316 µM) was 2130 nM, the IC50 (second compound 0.1 µM) was 2240 nM and the IC50 (second compound 0.316 µM) was 1950 nM. The IC50 (second compound 1 µM) was 1770 nM, the IC50 (second compound 3.16 µM) was < 31.6 nM and the viability, T/C [5] was 101%. For the same compound, the viability, T/C [6] was 107%, the viability, T/C [31] was 110% and the viability, T/C [32] was 117%. The viability, T/C [33] was 19.4%, the viability, T/C [34] was 3.14% and the viability, T/C [11] was 115%. It also gave a viability, T/C [12] of 105%, a viability, T/C [35] of 112% and a viability, T/C [36] of 108%. The viability, T/C [37] was 25%, the viability, T/C [38] was 4.15% and the viability, T/C [17] was 114%. For the same compound, the viability, T/C [18] was 108%, the viability, T/C [39] was 97.8% and the viability, T/C [40] was 105%. The viability, T/C [41] was 10.8%, the viability, T/C [42] was 0.82% and the viability, T/C [23] was 119%. The viability, T/C [24] was 101%, the viability, T/C [43] was 115% and the viability, T/C [44] was 98.2%. The viability, T/C [45] was 0.67%, the viability, T/C [46] was 0.35% and the viability, T/C [29] was 0.28%. It also gave a viability, T/C [30] of 1.07%, a viability, T/C [47] of 0.22% and a viability, T/C [48] of 0.18%. The viability, T/C [49] was 0.13% and the viability, T/C [50] was 0.17%.

With `COc1cc2nccc(Oc3ccc(NC(=O)C4(C(=O)Nc5ccc(F)cc5)CC4)cc3)c2cc1OC` + C=CC(=O)N1CCN(c2nc(OCC3CCCN3C)nc3c2CCN(c2cccc4cccc(C)c24)C3)CC1CC#N the IC50 (second compound 0.0316 µM) was 1880 nM, the IC50 (second compound 0.1 µM) was 1890 nM and the IC50 (second compound 0.316 µM) was 1720 nM. For the same compound, the IC50 (second compound 1 µM) was 1060 nM, the IC50 (second compound 3.16 µM) was < 31.6 nM and the viability, T/C [5] was 108%. It also gave a viability, T/C [6] of 107%, a viability, T/C [31] of 114% and a viability, T/C [32] of 95.5%. It also gave a viability, T/C [33] of 12.5%, a viability, T/C [34] of 12.3% and a viability, T/C [11] of 113%. For the same compound, the viability, T/C [12] was 122%, the viability, T/C [35] was 110% and the viability, T/C [36] was 97.8%. It also gave a viability, T/C [37] of 11.4%, a viability, T/C [38] of 10.8% and a viability, T/C [17] of 109%. It also gave a viability, T/C [18] of 108%, a viability, T/C [39] of 116% and a viability, T/C [40] of 85.3%. The viability, T/C [41] was 10.5%, the viability, T/C [42] was 11.3% and the viability, T/C [23] was 107%. The viability, T/C [24] was 109%, the viability, T/C [43] was 112% and the viability, T/C [44] was 52.5%. For the same compound, the viability, T/C [45] was 3.98%, the viability, T/C [46] was 0.37% and the viability, T/C [29] was 0.41%. The viability, T/C [30] was 0.44%, the viability, T/C [47] was 0.24% and the viability, T/C [48] was 0.21%. For the same compound, the viability, T/C [49] was 0.13% and the viability, T/C [50] was 0.2%.

In the case of `Cn1ncnc1[C@H]1c2n[nH]c(=O)c3cc(F)cc(c23)N[C@@H]1c1ccc(F)cc1` + C=CC(=O)N1CCN(c2nc(OCC3CCCN3C)nc3c2CCN(c2cccc4cccc(C)c24)C3)CC1CC#N, the IC50 (second compound 0.0316 µM) is reported as > 100 nM, the IC50 (second compound 0.1 µM) is reported as > 100 nM and the IC50 (second compound 0.316 µM) is reported as > 100 nM. The IC50 (second compound 1 µM) was > 100 nM, the IC50 (second compound 3.16 µM) was < 0.316 nM and the viability, T/C [1] was 94.5%. It also gave a viability, T/C [2] of 109%, a viability, T/C [3] of 100% and a viability, T/C [4] of 93.8%. It also gave a viability, T/C [5] of 99.2%, a viability, T/C [6] of 79.8% and a viability, T/C [7] of 114%. It also gave a viability, T/C [8] of 98.5%, a viability, T/C [9] of 110% and a viability, T/C [10] of 94.9%. The viability, T/C [11] was 98.3%, the viability, T/C [12] was 80.5% and the viability, T/C [13] was 92%. It also gave a viability, T/C [14] of 109%, a viability, T/C [15] of 106% and a viability, T/C [16] of 108%. The viability, T/C [17] was 90.1%, the viability, T/C [18] was 79.4% and the viability, T/C [19] was 103%. For the same compound, the viability, T/C [20] was 95.4%, the viability, T/C [21] was 105% and the viability, T/C [22] was 84.8%. The viability, T/C [23] was 70.8%, the viability, T/C [24] was 63.4% and the viability, T/C [25] was 0.19%. The viability, T/C [26] was 0.19%, the viability, T/C [27] was 0.16% and the viability, T/C [28] was 0.18%. It also gave a viability, T/C [29] of 0.21% and a viability, T/C [30] of 0.27%.
